According to US7816353B2 (Exelixis, Inc., priority 2003, dated 2010):

Molecular target: T1, p70S6K (Homo sapiens, UniProt P23443, T412E)
T1 construct: human p70S6 kinase domain residues 1-421, containing a T412E mutation; made in house
Experiment: p70S6 Kinase Assay (Luciferase-Coupled Chemiluminescent Kinase assay, LCCA)
Type: biochemical
Conditions: human p70S6 kinase domain residues 1-421, T412E; 5 μM ATP; read-out: p70S6K IC50
In short: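 Luciferase-coupled chemiluminescence measured percent ATP remaining after the 2 h kinase reaction at ambient temperature, with ATP near the kinase's KM. Ten inhibitor concentrations were tested. IC50 was obtained from a Hill-equation fit.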

T1 sequence (P23443 1-421 T412E): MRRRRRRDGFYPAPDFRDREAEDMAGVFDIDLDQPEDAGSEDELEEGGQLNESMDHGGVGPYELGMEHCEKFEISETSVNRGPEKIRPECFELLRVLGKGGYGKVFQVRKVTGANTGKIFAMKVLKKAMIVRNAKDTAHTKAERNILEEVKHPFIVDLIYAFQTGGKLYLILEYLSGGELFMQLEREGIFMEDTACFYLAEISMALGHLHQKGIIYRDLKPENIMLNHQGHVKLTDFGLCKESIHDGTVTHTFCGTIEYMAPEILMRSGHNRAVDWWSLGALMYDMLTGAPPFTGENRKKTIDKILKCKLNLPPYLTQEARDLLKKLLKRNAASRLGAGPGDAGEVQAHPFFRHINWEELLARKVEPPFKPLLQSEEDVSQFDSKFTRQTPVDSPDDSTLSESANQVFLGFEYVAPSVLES

Row | Structure (SMILES) | IC50
1 | CSc1nc(N)nc(OCC(=O)Nc2cccc(C(F)(F)F)c2)c1CO [Example 56, 2-{[2-amino-5-(hydroxymethyl)-6-(methylthio)pyrimidin-4-yl]oxy}-N-[3-(trifluoromethyl)phenyl]acetamide] | 500 to 2000 nM
2 | CSc1nc(N)nc(NCC(=O)Nc2cccc(C(F)(F)F)c2)c1/C=N/N [Example 58, N^2-[2-amino-5-[(E)-hydrazonomethyl]-6-(methylthio)pyrimidin-4-yl]-N-[3-(trifluoromethyl)phenyl]glycinamide] | 500 to 2000 nM
3 | CN(C)c1nc(N)nc(SCC(=O)Nc2cccc(C(F)(F)F)c2)c1C#N [Example 66, 2-{[2-amino-5-cyano-6-(dimethylamino)pyrimidin-4-yl]thio}-N-[3-(trifluoromethyl)phenyl]acetamide] | 500 to 2000 nM
4 | CSc1nc(N)nc(N(C)NC(=O)Nc2cccc(C(F)(F)F)c2)c1C#N [Example 96, 2-[2-amino-5-cyano-6-(methylthio)pyrimidin-4-yl]-2-methyl-N-[3-(trifluoromethyl)phenyl]hydrazinecaboxamide] | > 2000 nM
5 | CSc1nc(N)nc(N[C@@H](C)C(=O)Nc2cc(C(=O)O)cc(C(F)(F)F)c2)c1C#N [Example 145] | 500 to 2000 nM
6 | CSc1nc(N)nc(NNC(=O)Nc2cccc(C(F)(F)F)c2)c1C#N [Example 64, 2-[2-amino-5-cyano-6-(methylthio)pyrimidin-4-yl]-N-[3-(trifluoromethyl)phenyl]hydrazinecarboxamide] | 500 to 2000 nM
7 | CSc1nc(N)nc(N(C)[C@@H](C)c2nc3ccc(C(F)(F)F)cc3[nH]2)c1C#N [Example 104, 2-amino-4-(methylthio)-6-(methyl{(1S)-1-[6-(trifluoromethyl)-1H-benzimidazol-2-yl]ethyl}amino)pyrimidine-5-carbonitrile] | > 2000 nM
8 | CCOc1nc(N)nc(N[C@@H](CCC(N)=O)C(=O)Nc2cccc(C(F)(F)F)c2)c1C#N [Example 175, N~2~-[2-amino-5-cyano-6-(ethyloxy)pyrimidin-4-yl]-N~1~-[3-(trifluoromethyl)phenyl]-L-glutamamide] | > 2000 nM

The remaining lines, values ahead:

Row | IC50 | Structure (SMILES)
9 | > 2000 nM | CSc1nc(N)nc(N[C@@H](CCCNS(C)(=O)=O)C(=O)Nc2cccc(C(F)(F)F)c2)c1C#N [Example 198, N~2~-[2-amino-5-cyano-6-(methylthio)pyrimidin-4-yl]-N~5~-(methylsulfonyl)-N-[3-(trifluoromethyl)phenyl]-L-ornithinamide]
10 | > 2000 nM | COc1nc(N)nc(N[C@@H](C)C(=O)Nc2cc(OCCN(C)C)cc(C(F)(F)F)c2)c1C#N [Example 179, N~2~-[2-amino-5-cyano-6-(methyloxy)pyrimidin-4-yl]-N-[3-{[2-(dimethylamino)ethyl]oxy}-5-(trifluoromethyl)phenyl]-L-alaninamide]
11 | > 2000 nM | CCOc1nc(N)nc(N[C@@H](CCCN2CCOCC2)C(=O)Nc2cccc(C(F)(F)F)c2)c1C#N [Example 168, N~2~-[2-amino-5-cyano-6-(ethyloxy)pyrimidin-4-yl]-5-morpholin-4-yl-N-[3-(trifluoromethyl)phenyl]-L-norvalinamide]
12 | > 2000 nM | CCOc1nc(N)nc(N[C@@H](CN2CCOCC2)C(=O)Nc2cccc(C(F)(F)F)c2)c1C#N [Example 193, N~2~-[2-amino-5-cyano-6-(ethyloxy)pyrimidin-4-yl]-3-morpholin-4-yl-N-[3-(trifluoromethyl)phenyl]-L-alaninamide]
13 | > 2000 nM | CSc1nc(N)nc(N[C@@H](C)C(=O)Nc2cccc([N+](=O)[O-])c2)c1C#N [Example 113, N^2-[2-amino-5-cyano-6-(methylthio)pyrimidin-4-yl]-N-(3-nitrophenyl)-L-alaninamide]
14 | > 2000 nM | Cc1nc2oc(C(=O)Nc3cccc(C(F)(F)F)c3)c(N)c2c(C)c1[N+](=O)[O-] [Example 98, 3-amino-4,6-dimethyl-5-nitro-N-[3-(trifluoromethyl)phenyl]furo[2,3-b]pyridine-2-carboxamide]
